pIC50: −log10 of the molar value.
Assays:
[1] = system: herpes simplex virus (HSV); conditions: cited from earlier work
neointima formation = conditions: intraluminal exposure of a denuded rat carotid artery; cited from earlier work
cdc2/cyclinB = cdc2/cyclinB (Homo sapiens, UniProt P06493); assay: cdc2/cyclinB kinase assay (Table 1, CdkB); format: biochemical; conditions: 32P incorporation into retinoblastoma, 25° C., 15 minutes
Experimental: (§1) All components except the ATP were added to the wells, and the plate was placed on a plate mixer for 2 minutes. The reaction was begun by addition of [^32P]ATP, and the plate was incubated at 25° C. for 15 minutes. The reaction was terminated by addition of 0.1 mL of 20% TCA. The plate was kept at 4° C. for at least 1 hour to allow the substrate to precipitate. The wells were then washed five times with 0.2 mL of 10% TCA and ^32P incorporation determined with a beta plate counter (Wallac Inc., Gaithersburg, Md.).

cdk2/A = cdk2/A (Homo sapiens, UniProt P24941); assay: cdk2/A kinase assay; format: biochemical; conditions: 32P incorporation into retinoblastoma, 25° C., 15 minutes; read-out: Cdk2A IC50
Experimental: as §1

cdk2/cyclinE = cdk2/cyclinE (Homo sapiens, UniProt P24941); assay: cdk2/cyclinE kinase assay; format: biochemical; conditions: 32P incorporation into retinoblastoma, 25° C., 15 minutes; read-out: Cdk2E IC50
Experimental: as §1

cdk4/D = cdk4/D (Homo sapiens, UniProt P11802); assay: Cyclin-Dependent Kinase 4 (cdk4) Assay; format: biochemical
Experimental: As noted above, the compounds of this invention are potent inhibitors of cyclin-dependent kinases, and accordingly, are useful in treating and preventing neurodegenerative disorders, atherosclerosis, and other cell proliferative disorders like cancer. […] A typical assay, for instance, measures inhibitory activity against the cyclin D dependent kinase 4 enzyme (cdk4/D). […] The cdk4 assay was carried out as follows.
Cyclin-Dependent Kinase 4 (cdk4) Assay
Enzyme assays for IC50 determinations (Table 1 above) and kinetic evaluation were performed in 96 well filter plates (Millipore MADVN6550). The total volume was 0.1 mL containing a final concentration of 20 mM TRIS (tris[hydroxymethyl]aminomethane), at pH 7.4, 50 mM NaCl, 1 mM dithiothreitol, 10 mM MgCl2, 25 μM ATP containing 0.25 μCi of [^32P]ATP, 20 ng of cdk4, 1 μg of retinoblastoma, and appropriate dilutions of a compound of the present invention. All components except the ATP were added to the wells, and the plate was placed on a plate mixer for 2 minutes. The reaction was started by adding [^32P]ATP and the plate was incubated at 25° C. for 15 minutes. The reaction was terminated by addition of 0.1 mL of 20% trichloroacetic acid (TCA). The plate was kept at 4° C. for at least 1 hour to allow the substrate to precipitate. The wells were then washed five times with 0.2 mL of 10% TCA and ^32P incorporation was determined with a beta plate counter (Wallac Inc., Gaithersburg, Md.).

Sequence of cdk4/D (P11802 whole entry, species assumed): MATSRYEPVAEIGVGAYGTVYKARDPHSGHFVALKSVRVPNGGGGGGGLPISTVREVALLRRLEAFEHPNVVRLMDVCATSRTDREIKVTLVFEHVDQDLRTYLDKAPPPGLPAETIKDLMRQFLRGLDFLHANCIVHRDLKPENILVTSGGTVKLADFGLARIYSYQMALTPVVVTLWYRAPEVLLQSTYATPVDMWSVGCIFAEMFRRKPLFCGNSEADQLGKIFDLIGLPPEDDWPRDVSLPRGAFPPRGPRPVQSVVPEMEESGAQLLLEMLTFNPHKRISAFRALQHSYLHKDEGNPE
Sequence of cdk4/D (P24385 whole entry partner, species assumed): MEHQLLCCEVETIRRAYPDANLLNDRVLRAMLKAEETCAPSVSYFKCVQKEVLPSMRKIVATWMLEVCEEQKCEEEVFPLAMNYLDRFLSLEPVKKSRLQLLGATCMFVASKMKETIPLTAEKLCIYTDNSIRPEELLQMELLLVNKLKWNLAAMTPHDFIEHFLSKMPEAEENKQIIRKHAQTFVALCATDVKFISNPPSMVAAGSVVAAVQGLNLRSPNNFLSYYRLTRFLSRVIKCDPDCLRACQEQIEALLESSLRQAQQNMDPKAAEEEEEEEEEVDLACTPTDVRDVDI
Sequence of cdc2/cyclinB (P06493 whole entry, species assumed): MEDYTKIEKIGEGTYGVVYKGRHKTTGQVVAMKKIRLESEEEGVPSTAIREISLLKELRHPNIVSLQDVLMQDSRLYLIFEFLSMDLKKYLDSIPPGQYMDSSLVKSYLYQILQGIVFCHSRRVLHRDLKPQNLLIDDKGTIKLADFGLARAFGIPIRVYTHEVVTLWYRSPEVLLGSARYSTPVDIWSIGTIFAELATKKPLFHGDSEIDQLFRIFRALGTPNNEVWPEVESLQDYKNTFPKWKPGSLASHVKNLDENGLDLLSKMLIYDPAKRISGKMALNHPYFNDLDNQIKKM
Sequence of cdc2/cyclinB (P14635 whole entry partner, species assumed): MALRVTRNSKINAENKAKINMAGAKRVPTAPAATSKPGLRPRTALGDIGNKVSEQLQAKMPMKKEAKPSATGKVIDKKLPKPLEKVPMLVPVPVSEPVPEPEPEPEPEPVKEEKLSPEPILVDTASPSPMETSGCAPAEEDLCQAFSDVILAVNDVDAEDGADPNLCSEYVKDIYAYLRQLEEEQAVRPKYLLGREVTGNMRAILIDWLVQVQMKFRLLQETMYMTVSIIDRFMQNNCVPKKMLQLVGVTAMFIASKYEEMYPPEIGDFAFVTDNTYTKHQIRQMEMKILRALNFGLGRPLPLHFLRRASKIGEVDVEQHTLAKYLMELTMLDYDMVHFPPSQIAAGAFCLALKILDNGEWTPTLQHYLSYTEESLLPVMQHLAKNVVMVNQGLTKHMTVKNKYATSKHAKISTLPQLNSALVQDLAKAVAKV

Compound	HSV replication [1]	inhibition of neointima formation (neointima formation)	pIC50 (cdc2/cyclinB)	pIC50 (cdk2/A)	pIC50 (cdk2/cyclinE)	pIC50 (cdk4/D)	melting point
CC[C@H](CO)Nc1nc(NCc2ccccc2)c2ncn(C(C)C)c2n1 [roscovitine]	inhibited	–	–	–	–	–	–
COc1ccc(CNc2nc(N(CCO)CCO)nc3c2ncn3C(C)C)cc1 [CVT-313]	–	greater than 80%	–	–	–	–	–
COc1ccc2cnc(Nc3ccc(N4CCN(C(=O)CN)CC4)cc3)nc2c1C1CCCC1 [Example 40, 2-Amino-1-{4-[4-(8-cyclopentyl-7-methoxy-quinazolin-2-ylamino)-phenyl]-piperazin-1-yl}-ethanone]	–	–	6.57	7.02	6.35	8.70	202 °C
COc1ccc2cnc(Nc3ccc(N4CCN(C(C)=O)CC4)cc3)nc2c1C1CCCC1 [Example 20, 1-{4-[4-(8-Cyclopentyl-7-methoxy-quinazolin-2-ylamino)-phenyl]-piperazin-1-yl}-ethanone]	–	–	< 5.30	7.30	6.58	8.70	247 to 249 °C
COc1ccc2cnc(Nc3ccc(N4CCOCC4)cc3)nc2c1C1CCCC1 [Example 44, (8-Cyclopentyl-7-methoxy-quinazolin-2-yl)-(4-morpholin-4-yl-phenyl)-amine]	–	–	5.80	6.42	6.19	7.74	243 to 244 °C

— patent US6982260B1, “Quinazolines and their use for inhibiting cyclin-dependent kinase enzymes” (Warner-Lambert Company, priority 1999, dated 2006)
